{
  "source": "paper PMC5698418",
  "about": "(Nature Communications, 2017)",
  "key": {"[1]": {"test_system": "BDNF-induced nuclear Arc expression in primary cortical neurons", "assay": "Chemogenomic screen: high-content image-based assay of BDNF-induced nuclear Arc expression (96-well)", "type": "cell-based, mouse", "in_short": "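Nuclear Arc immunofluorescence is quantified automatically within an acetyl-H3K9-defined nuclear mask from ×40 images. Cultures are DIV13 mouse forebrain cortical neurons seeded at 30,000 per well and exposed to BDNF plus compound at a final 16.7 µM, with triplicate biological replicates.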"}, "[2]": {"test_system": "acetyl-H3K9", "assay": "Acetyl-H3K9 immunofluorescence in neuronal nuclei (multiplexed in screen)", "type": "cell-based, mouse", "conditions": "screen, 16.7 µM", "in_short": "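DIV13 mouse primary cortical neurons treated with library compounds and BDNF, then immunostained for Arc and acetyl-H3K9. Imaged at ×40 by automated microscopy; acetyl-H3K9 signal served as nuclear mask for quantifying nuclear Arc immunofluorescence.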"}, "[3]": {"test_system": "GluA2 mRNA", "assay": "GluA2 mRNA by RT-qPCR in cortical neurons", "type": "cell-based, mouse", "conditions": "BDNF plus AK-7 16.7 µM vs BDNF plus vehicle, 6 h", "description": "After experimental treatment, total RNA was isolated from primary cortical neuron cultures using the TRIzol method (Invitrogen). The concentration of total RNA was measured using a NanoDrop 1000 spectrophotometer (Thermo Fisher Scientific, Rockford, IL) and first-strand complementary DNA (cDNA) was synthesized using the iScript cDNA Synthesis Kit (Bio-Rad, Hercules, CA). Real-time PCRs were performed using gene-specific primers and monitored by quantification of SYBR Green I fluorescence using a Bio-Rad CFX96 Real-Time Detection System. Expression was normalized against Gapdh expression. The relative quantification from at least three biological replicates was performed using the comparative cycle threshold (∆∆CT) method.\nPrimers for real-time reverse transcription PCR experiments were: Arc, 5′-[…]-3′ (forward) and 5′-[…]-3′ (reverse); Map2, 5′-[…]-3′ (forward) and 5′-[…]-3′ (reverse); GluA1, 5′-[…]-3′ (forward) and 5′-[…]-3′ (reverse); GluA2, 5′-[…]-3′ (forward) and 5′-[…]-3′ (reverse); Gapdh, 5′-[…]-3′ (forward) and 5′-[…]-3′ (reverse).\nSupplementary Fig. 6. […] Bars represent mean fold-change and error bars indicate range from five biological replicates."}, "[4]": {"target": "T1, HDAC1 (Homo sapiens, UniProt Q13547)", "T1 construct": "purchased BPS Bioscience (San Diego, CA), contract assay service", "T1 sequence (Q13547 whole entry)": "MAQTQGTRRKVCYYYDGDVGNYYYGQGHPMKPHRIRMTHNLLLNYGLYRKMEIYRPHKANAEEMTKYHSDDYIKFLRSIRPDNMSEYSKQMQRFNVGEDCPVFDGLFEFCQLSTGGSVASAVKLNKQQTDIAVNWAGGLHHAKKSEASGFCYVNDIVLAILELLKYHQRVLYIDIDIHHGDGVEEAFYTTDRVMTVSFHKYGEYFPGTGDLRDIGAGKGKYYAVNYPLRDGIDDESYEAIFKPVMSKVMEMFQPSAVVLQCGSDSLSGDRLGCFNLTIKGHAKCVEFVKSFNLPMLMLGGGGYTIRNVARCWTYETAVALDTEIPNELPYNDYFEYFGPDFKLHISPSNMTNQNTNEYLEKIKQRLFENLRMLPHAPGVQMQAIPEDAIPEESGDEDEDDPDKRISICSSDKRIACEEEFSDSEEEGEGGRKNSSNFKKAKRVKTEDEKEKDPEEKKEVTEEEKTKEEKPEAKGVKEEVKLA", "assay": "Biochemical HDAC assay (BPS Bioscience), HDAC1", "conditions": "25 µM"}, "[5]": {"target": "T2, HDAC2 (Homo sapiens, UniProt Q92769)", "T2 construct": "purchased BPS Bioscience (San Diego, CA), contract assay service", "T2 sequence (Q92769 whole entry)": "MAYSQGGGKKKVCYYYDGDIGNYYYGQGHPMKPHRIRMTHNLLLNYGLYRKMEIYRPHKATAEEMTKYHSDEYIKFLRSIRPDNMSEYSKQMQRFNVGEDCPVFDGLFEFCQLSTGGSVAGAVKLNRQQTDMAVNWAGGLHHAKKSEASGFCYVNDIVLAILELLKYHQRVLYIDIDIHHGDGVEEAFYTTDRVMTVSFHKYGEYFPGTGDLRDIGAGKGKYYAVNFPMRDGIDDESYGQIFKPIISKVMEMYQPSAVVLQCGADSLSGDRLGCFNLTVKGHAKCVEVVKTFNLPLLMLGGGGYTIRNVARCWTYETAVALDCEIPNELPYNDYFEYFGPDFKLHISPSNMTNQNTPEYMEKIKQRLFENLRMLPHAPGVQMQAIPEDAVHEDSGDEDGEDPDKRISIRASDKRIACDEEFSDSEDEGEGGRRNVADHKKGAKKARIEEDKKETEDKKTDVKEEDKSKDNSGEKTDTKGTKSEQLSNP", "assay": "Biochemical HDAC assay (BPS Bioscience), HDAC2", "conditions": "25 µM"}, "[6]": {"test_system": "Arc puncta in dendrites of primary cortical neurons", "assay": "Arc puncta along Map2-labeled dendrites (immunocytochemistry)", "type": "cell-based, mouse", "conditions": "16.7 µM with BDNF, vs untreated and BDNF alone; for BDNF: BDNF alone vs untreated", "description": "Chemical structure of each compound is presented on top. b Graphs show mean (n = 5) Arc/β-actin ratio (±SEM) for cells treated as in a. […] Tukey’s HSD post hoc test, *p < 0.05; **p < 0.01, ***p < 0.005; ****p < 0.0001. […] Representative captures of DIV14 mouse primary cortical neurons from each experimental condition co-immunostained for Arc (red fluorophore) and Map2 (green fluorophore). White arrowheads show examples of discrete Arc puncta. […] Tukey’s HSD post hoc test, *p < 0.05; ***p < 0.005; ****p < 0.0001\nIndirect immunofluorescence detection of antigens was carried out using cortical neurons cultured on poly-L-lysine/laminin-coated coverslips in 24-well plates at a density of 0.1 × 10^7 per well. After experimental treatment, cells were washed twice with PBS and fixed for 30 min at room temperature with 4% paraformaldehyde in PBS. After fixation, cells were washed twice with PBS, permeabilized with PBST (PBS + 0.25% Triton X-100) for 20 min, blocked in blocking solution (PBS + 5% normal goat serum) for another 30 min, and finally incubated overnight at 4 °C with the first primary antibody in blocking solution. The next day, coverslips were extensively washed with PBS and incubated for 2 h at room temperature in the appropriate fluorophore-conjugated secondary antibody solution (Alexa 488- or Alexa 594-conjugated secondary antibody (Molecular Probes, Invitrogen) in blocking solution). After washing with PBS, the coverslips were incubated again overnight in primary antibody solution for the second antigen, and the procedure for conjugation of the fluorophore-conjugated secondary antibody was repeated as above. Finally, cell nuclei were counterstained with 4′,6-diamidino-2-phenylindole (DAPI), and coverslips were mounted on glass slides with ProLong Antifade reagent (Invitrogen).\nQuantification of surface GluA1 puncta was performed according to the following strategy. First, overlapping digital images of GluA1 and Map2 immunostainings were collected using a Zeiss AxioObserver Z1 inverted microscope and ×63 oil immersion objective. Second, thresholding and segmentation based on the Map2 images was used to remove GluA1 signals outside of dendritic processes. Importantly, the same background/foreground cutoff threshold was used for images of all experimental conditions. Third, the length of dendrites for each image set was measured and recorded. Finally, distinct GluA1 foreground objects along dendrites >5 pixels were counted using the particle analysis tool in ImageJ and presented as the average number of GluA1 puncta per µm of dendrite length for each experimental condition."}, "[7]": {"test_system": "AMPAR currents in primary cortical neurons", "assay": "Single-cell electrophysiology of AMPA-mediated mEPSCs", "type": "cell-based, mouse", "description": "Primary cortical neurons cultured on glass coverslips were recorded at DIV15 in voltage clamp mode. The external solution was kept at 25 °C and contained 120 mM NaCl, 2 mM KCl, 1 mM MgCl2, 1.5 mM CaCl2, 10 mM 4-(2-hydroxyethyl)-1-piperazineethane-sulfonic acid (HEPES) and 15 mM glucose. […]. Patch recording pipettes (3–6 MΩ) were filled with an internal solution (pH 7.2). The internal solution contained 120 mM K-gluconate, 6 mM NaCl, 1 mM MgCl2, 10 mM HEPES, and 0.2 mM ethylene glycol tetraacetic acid. Data were acquired using an HEKA EPC-10 patch-clamp amplifier interfaced with PatchMaster software and analyzed using FitMaster software (HEKA Elektronik, Holliston, MA) and MiniAnalysis (Synaptosoft, Fort Lee, NJ). Miniature EPSCs were recorded for a minimum of 2 min at a holding potential of −80 mV. Analysis of synaptic event data was performed using MiniAnalysis software with event detection threshold set at maximum root mean squared noise level (5 pA). Recordings of synaptic events were assessed for frequency (Hz) and mean amplitude (pA)."}},
  "data": [
    {"smiles": "O=C(Nc1cccc(Br)c1)c1cccc(S(=O)(=O)N2CCCCCC2)c1", "note": "[AK-7]", "values": [
      {"measurement": "rank among potentiators of BDNF-induced nuclear Arc expression in screen", "setting": "[1]; 16.7 µM, three biological replicates", "value": "first"},
      {"measurement": "Percentage of cell with nuclear Arc immunostaining above 2σ threshold", "setting": "[1]; chemogenomic (SMART) screen, BDNF-induced nuclear Arc expression, primary cortical neurons, BDNF control 19.5", "value": 61.6, "unit": "%"},
      {"measurement": "Fold-change — Normalized to DMSO control (BDNF)", "setting": "[1]; nuclear Arc-positive cells relative to DMSO + BDNF control, negative values = decrease", "value": 3.2, "unit": "fold"},
      {"measurement": "impact on acetyl-H3K9 immunofluorescence (Z-score)", "setting": "[2]", "value": "increasing effect of intermediate intensity"},
      {"measurement": "GluA2 mRNA expression", "setting": "[3]", "value": "does not affect"},
      {"measurement": "inhibitory activity toward HDAC1", "setting": "[4]", "value": "failed to show any inhibitory activity"},
      {"measurement": "inhibitory activity toward HDAC2", "setting": "[5]", "value": "failed to show any inhibitory activity"},
      {"measurement": "number of Arc puncta in dendritic projections", "setting": "[6]", "value": "significantly greater number of Arc puncta"},
      {"measurement": "mEPSC amplitude", "setting": "[7]; AK-7 and BDNF 6 h vs BDNF alone, DIV15", "value": "significant decrease in the amplitude of mEPSCs"},
      {"measurement": "mEPSC frequency", "setting": "[7]; untreated, BDNF alone, AK-7 plus BDNF", "value": "all similar"}
    ]}
  ]
}
